ChEMBL document CHEMBL4828767, “Identification of Clinical Candidate M2698, a Dual p70S6K and Akt Inhibitor, for Treatment of PAM Pathway-Altered Cancers” (J Med Chem, 2021)

What was measured:
[1] = target: Ribosomal protein S6 kinase beta-1 (Homo sapiens, UniProt P23443, T412E); assay type: cell-based, Sf21
[2] = target: RAC-alpha serine/threonine-protein kinase (Homo sapiens, UniProt P31749)
cells = assay type: cell-based; conditions: Homo sapiens, MDA-MB-468
[3] = target: Aurora kinase B/Inner centromere protein (Homo sapiens, UniProt Q96GD4); assay: biochemical; assay type: cell-based, Sf21
Chain of Aurora kinase B/Inner centromere protein (Q96GD4 whole entry): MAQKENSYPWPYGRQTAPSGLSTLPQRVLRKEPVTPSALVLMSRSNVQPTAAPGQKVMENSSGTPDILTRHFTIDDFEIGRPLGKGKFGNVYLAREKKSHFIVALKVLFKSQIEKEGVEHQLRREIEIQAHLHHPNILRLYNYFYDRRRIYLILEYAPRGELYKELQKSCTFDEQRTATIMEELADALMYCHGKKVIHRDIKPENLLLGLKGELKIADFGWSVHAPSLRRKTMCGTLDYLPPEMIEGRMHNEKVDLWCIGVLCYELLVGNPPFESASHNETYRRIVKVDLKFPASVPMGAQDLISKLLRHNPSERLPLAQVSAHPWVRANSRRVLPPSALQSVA
Chain of Aurora kinase B/Inner centromere protein (Q9NQS7 whole entry, further chain): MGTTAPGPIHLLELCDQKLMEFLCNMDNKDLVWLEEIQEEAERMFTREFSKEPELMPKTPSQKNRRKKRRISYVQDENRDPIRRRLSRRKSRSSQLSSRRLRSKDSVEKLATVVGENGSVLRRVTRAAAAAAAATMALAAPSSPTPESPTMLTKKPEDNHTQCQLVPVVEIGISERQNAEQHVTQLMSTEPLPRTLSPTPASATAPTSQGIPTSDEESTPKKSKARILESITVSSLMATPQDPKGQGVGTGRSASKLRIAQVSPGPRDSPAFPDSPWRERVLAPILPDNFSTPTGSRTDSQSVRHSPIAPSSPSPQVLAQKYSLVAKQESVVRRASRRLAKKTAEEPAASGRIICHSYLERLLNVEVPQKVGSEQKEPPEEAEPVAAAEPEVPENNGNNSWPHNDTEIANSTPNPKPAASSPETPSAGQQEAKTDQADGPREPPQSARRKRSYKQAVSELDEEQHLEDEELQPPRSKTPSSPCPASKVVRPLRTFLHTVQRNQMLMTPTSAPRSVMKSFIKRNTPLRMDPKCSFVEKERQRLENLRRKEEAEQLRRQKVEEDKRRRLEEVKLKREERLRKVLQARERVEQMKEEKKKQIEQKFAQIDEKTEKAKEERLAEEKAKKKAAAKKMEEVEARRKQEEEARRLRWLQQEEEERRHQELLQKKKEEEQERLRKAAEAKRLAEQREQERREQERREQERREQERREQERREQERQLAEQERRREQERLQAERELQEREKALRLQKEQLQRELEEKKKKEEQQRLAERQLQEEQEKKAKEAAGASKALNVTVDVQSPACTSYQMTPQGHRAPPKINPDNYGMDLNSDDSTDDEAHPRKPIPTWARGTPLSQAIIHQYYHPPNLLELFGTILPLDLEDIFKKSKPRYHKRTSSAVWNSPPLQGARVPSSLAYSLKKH

[4] = human, microsomes
Description: Intrinsic clearance in human microsomes

MDA-MB-468 = assay: cells; assay type: functional, cell-based; conditions: Homo sapiens, MDA-MB-468, 96 h
Description: Antiproliferative activity against human MDA-MB-468 cells incubated for 96 hrs by luminescence method

in vitro [5] = conditions: mouse, plasma
Description: Protein binding in mouse plasma assessed as unbound fraction

[6] = mouse, microsomes
Description: Intrinsic clearance in mouse microsomes

hERG (KCNH2) = hERG (KCNH2) (Homo sapiens, UniProt Q12809); assay: in vitro
Chain of hERG (KCNH2) (Q12809 whole entry): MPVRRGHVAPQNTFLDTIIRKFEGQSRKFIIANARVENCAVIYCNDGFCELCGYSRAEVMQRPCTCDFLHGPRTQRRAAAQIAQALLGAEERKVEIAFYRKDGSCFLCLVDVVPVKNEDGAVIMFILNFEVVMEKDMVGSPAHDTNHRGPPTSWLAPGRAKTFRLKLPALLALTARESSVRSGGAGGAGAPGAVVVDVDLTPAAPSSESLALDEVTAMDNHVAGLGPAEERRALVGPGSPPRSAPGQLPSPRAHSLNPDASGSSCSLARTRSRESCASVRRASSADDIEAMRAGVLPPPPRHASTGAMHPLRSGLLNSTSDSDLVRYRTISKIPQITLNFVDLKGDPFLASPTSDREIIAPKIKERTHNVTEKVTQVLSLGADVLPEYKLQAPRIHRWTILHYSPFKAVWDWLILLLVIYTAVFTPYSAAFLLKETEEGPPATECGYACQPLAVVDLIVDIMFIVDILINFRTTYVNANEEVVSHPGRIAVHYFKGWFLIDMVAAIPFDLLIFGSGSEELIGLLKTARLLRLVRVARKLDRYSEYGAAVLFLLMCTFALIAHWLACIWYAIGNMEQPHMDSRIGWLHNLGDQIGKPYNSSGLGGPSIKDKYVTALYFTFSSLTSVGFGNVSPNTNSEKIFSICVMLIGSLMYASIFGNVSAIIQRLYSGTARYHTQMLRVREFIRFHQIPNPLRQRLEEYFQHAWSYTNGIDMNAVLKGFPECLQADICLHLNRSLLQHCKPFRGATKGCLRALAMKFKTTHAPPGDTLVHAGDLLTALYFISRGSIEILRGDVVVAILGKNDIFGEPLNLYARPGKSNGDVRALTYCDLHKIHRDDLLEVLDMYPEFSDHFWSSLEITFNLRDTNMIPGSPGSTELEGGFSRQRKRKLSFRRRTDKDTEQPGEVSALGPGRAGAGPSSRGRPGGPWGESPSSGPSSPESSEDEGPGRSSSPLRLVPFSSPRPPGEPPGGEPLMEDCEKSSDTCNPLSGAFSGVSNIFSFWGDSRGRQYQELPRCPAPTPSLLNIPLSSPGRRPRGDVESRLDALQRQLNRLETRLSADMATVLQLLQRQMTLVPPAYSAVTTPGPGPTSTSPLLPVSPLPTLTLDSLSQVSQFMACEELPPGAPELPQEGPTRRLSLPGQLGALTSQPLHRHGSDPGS
Description: Inhibition of human ERG at 10 uM relative to control

in vitro [7] = conditions: rat, plasma
Description: Protein binding in rat plasma assessed as unbound fraction

[8] = rat, microsomes
Description: Intrinsic clearance in rat microsomes

in vivo [9] = conditions: mouse
in vitro [10] = conditions: human, plasma
Description: Protein binding in human plasma assessed as unbound fraction

in vivo [11] = conditions: mouse, po
Description: Oral bioavailability in mouse

[12] = buffer, pH 7.4
Description: Thermodynamic solubility of compound at pH 7.4

Cytochrome P450 2C9 = Cytochrome P450 2C9 (Homo sapiens, UniProt P11712)
Chain of Cytochrome P450 2C9 (P11712 whole entry): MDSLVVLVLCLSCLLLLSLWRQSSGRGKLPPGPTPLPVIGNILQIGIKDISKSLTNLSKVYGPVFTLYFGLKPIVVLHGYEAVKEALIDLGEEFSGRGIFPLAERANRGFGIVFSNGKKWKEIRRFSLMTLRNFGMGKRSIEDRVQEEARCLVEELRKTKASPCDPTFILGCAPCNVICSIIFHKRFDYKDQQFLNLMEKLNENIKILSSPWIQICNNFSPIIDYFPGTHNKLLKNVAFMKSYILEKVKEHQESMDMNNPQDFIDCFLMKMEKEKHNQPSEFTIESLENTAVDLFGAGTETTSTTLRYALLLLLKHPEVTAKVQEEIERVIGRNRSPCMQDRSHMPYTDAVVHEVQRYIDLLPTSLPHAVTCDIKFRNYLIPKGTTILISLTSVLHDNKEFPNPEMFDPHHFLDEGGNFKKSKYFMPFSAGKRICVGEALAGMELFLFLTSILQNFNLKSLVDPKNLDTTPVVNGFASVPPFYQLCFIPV
Description: Inhibition of CYP2C9 (unknown origin)

in vitro [13] = conditions: human, Caco-2
in vivo [14] = conditions: mouse; remark: listed apart in the source
in vivo [15] = conditions: rat, po
Description: Oral bioavailability in rat

in vivo [16] = conditions: cynomolgus monkey
Description: Volume of distribution at steady state in cynomolgus monkey

in vivo [17] = conditions: cynomolgus monkey; remark: listed apart in the source
Description: Clearance in cynomolgus monkey

in vivo [18] = conditions: rat
Description: Volume of distribution at steady state in rat

in vivo [19] = conditions: cynomolgus monkey, po
Description: Oral bioavailability in cynomolgus monkey

in vivo [20] = conditions: dog
Description: Volume of distribution at steady state in dog

in vitro [21] = conditions: human, Caco-2; remark: listed apart in the source
in vivo [22] = conditions: rat; remark: listed apart in the source
in vivo [23] = conditions: dog, po
Description: Oral bioavailability in dog

physchem = conditions: octanol/water
Description: Lipophilicity, logP of compound

in vivo [24] = conditions: rat; remark: listed apart in the source
in vivo [25] = conditions: mouse; remark: listed apart in the source
Description: Volume of distribution at steady state in mouse

in vivo [26] = conditions: cynomolgus monkey; remark: listed apart in the source
Description: Half life in cynomolgus monkey

in vivo [27] = conditions: dog; remark: listed apart in the source
in vivo [28] = conditions: dog; remark: listed apart in the source

Chain of RAC-alpha serine/threonine-protein kinase (P31749 whole entry): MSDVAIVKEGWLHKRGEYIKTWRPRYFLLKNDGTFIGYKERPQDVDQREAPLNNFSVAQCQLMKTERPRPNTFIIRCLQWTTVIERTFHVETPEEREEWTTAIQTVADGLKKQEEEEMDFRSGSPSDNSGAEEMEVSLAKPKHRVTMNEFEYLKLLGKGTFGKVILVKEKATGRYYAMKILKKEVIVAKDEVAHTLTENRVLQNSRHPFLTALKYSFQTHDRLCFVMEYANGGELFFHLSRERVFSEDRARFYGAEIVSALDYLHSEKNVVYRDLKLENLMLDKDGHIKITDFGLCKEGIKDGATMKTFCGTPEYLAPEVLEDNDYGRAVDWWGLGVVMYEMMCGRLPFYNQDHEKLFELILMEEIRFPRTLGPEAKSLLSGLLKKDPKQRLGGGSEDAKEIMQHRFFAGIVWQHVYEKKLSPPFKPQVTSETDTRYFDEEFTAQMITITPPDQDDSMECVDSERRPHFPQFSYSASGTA
Chain of Ribosomal protein S6 kinase beta-1 (P23443 whole entry T412E): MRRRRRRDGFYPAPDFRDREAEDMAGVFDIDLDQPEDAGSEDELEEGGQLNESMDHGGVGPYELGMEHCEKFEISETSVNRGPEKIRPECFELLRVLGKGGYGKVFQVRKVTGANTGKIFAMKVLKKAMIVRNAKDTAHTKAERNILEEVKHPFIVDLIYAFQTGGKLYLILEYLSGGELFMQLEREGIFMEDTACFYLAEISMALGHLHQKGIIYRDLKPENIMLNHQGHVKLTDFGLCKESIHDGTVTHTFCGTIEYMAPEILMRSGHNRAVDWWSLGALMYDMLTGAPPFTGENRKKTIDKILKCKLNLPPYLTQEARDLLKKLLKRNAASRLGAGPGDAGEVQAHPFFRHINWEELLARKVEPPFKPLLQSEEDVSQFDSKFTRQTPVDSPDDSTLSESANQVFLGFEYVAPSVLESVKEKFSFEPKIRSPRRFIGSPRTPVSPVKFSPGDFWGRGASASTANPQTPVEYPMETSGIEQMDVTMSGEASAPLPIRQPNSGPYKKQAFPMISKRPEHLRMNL

In the case of `O=C(O)c1cccc2c(NCc3ccc4c(c3)OCO4)ncnc12`, the IC50 [1] is reported as > 10 µM.
In the case of `NC(=O)c1cccc2c(NCc3ccc4c(c3)OCO4)ccnc12`, the IC50 [2] is reported as > 10 µM.
Compound `NC(=O)c1cccc2c(N[C@H](CN3CCC3)c3ccc(F)c(F)c3)ncnc12` has an IC50 [1] of 0.001 µM, an IC50 (cells) of 0.074 µM and an IC50 [2] of 0.004 µM.
For `COC(=O)c1cccc2c(NCc3ccc4c(c3)OCO4)ncnc12`, the IC50 [1] was > 10 µM.
For `NC(=O)c1cccc2c(NCc3ccc4c(c3)OCO4)ncnc12`, the IC50 [2] was > 10 µM.
`NC(=O)c1cccc2c(N[C@H](CN3CCC3)c3cccc(C(F)(F)F)c3)ncnc12` showed an IC50 (cells) of 0.056 µM and an IC50 [2] of 0.006 µM.
Work on `NC(=O)c1cccc2c(N[C@H](CN3CCC3)c3cccc(F)c3)ncnc12` yielded an IC50 [1] of 0.0024 µM and an IC50 (cells) of 0.076 µM.
In the case of `CCc1nc(N[C@H](CNC)c2cccc(F)c2)c2cccc(C(N)=O)c2n1`, the IC50 [1] is reported as 0.002 µM, the IC50 [3] is reported as 0.051 µM and the IC50 (cells) is reported as 0.183 µM. It also gave an IC50 [2] of 0.212 µM.
Work on `NC(=O)c1cccc2c(N[C@H](CN3CCC3)c3cccc(Cl)c3)ncnc12` yielded an IC50 [1] of 0.0013 µM, an IC50 (cells) of 0.025 µM and an IC50 [2] of 0.014 µM.
`NC(=O)c1cccc2c(N[C@H](CN3CCC3)c3ccc(F)c(C(F)(F)F)c3)ncnc12` showed an IC50 [1] of 0.0029 µM, an IC50 [3] of 0.233 µM and an IC50 (cells) of 0.043 µM. The IC50 [2] was 0.006 µM.
`NC(=O)c1cccc2c(N[C@H](CN3CCC3)c3ccc(F)cc3)ncnc12` gave an IC50 [1] of 0.008 µM and an IC50 (cells) of 0.103 µM.
With `NC(=O)c1cccc2c(N[C@H](CN3CCC3)c3ccc(Cl)c(F)c3)ncnc12` the IC50 [1] was 0.002 µM, the IC50 [3] was 0.075 µM and the IC50 (cells) was 0.043 µM. It also gave an IC50 [2] of 0.01 µM.
With `c1ccc(CNc2ncnc3ccccc23)cc1` the IC50 [1] was > 10 µM.
`CNC[C@@H](Nc1ncnc2c(C(N)=O)cccc12)c1cccc(F)c1` showed a CL [4] of 21 mL/min, an IC50 [3] of 0.004 µM and an IC50 (MDA-MB-468) of 0.197 µM. For the same compound, the fraction unbound (in vitro [5]) was 0.22, the IC50 (cells) was 0.045 µM and the CL [6] was 11 mL/min. For the same compound, the inhibition at 10 µM (hERG (KCNH2)) was 26%, the fraction unbound (in vitro [7]) was 0.23 and the CL [8] was 29 mL/min. For the same compound, the clearance (in vivo [9]) was 1.74 L/h/kg, the fraction unbound (in vitro [10]) was 0.15 and the bioavailability (in vivo [11]) was 33%. It also gave a Therm_solubility [12] of 64 mg/mL, an IC50 (Cytochrome P450 2C9) of 3.6 µM and a Papp A→B (in vitro [13]) of 160 nm/s. The IC50 [2] was 0.004 µM and the half-life (in vivo [14]) was 2.1 h.
For `CNCC(Nc1ncnc2c(C(N)=O)cccc12)c1cccc(F)c1` (racemic), the IC50 [3] was 0.009 µM, the IC50 (cells) was 0.025 µM and the IC50 [2] was 0.015 µM.
For `CNC(=O)c1cccc2c(NCc3ccc4c(c3)OCO4)ncnc12`, the IC50 [1] was > 10 µM.
In the case of `CNC[C@@H](Nc1nc(C(F)(F)F)nc2c(C(N)=O)cccc12)c1cccc(F)c1`, the IC50 [1] is reported as 0.03 µM, the IC50 [3] is reported as > 1 µM and the IC50 [2] is reported as 0.4 µM.
With `NC(=O)c1cccc2c(N[C@H](CN3CCC3)c3ccccc3)ncnc12` the IC50 [1] was 0.0062 µM and the IC50 (cells) was 0.0016 µM.
`CNC[C@H](Nc1ncnc2c(C(N)=O)cccc12)c1cccc(F)c1` gave an IC50 (cells) of 0.702 µM.
For `CNC[C@@H](Nc1nc(C)nc2c(C(N)=O)cccc12)c1cccc(F)c1`, the IC50 [1] was 0.002 µM, the IC50 [3] was 0.006 µM and the IC50 (cells) was 0.072 µM. The IC50 [2] was 0.044 µM.
In the case of `NC(=O)c1cccc2c(N[C@H](CN3CCCC3)c3ccccc3)ncnc12`, the IC50 (cells) is reported as 0.00917 µM.
For `NC(=O)c1cccc2c(N[C@H](CN3CCCC3)c3cccc(F)c3)ncnc12`, the IC50 [1] was 0.065 µM, the IC50 [3] was 0.045 µM and the IC50 (cells) was > 1 µM. The IC50 [2] was 0.563 µM.
With `NC(=O)c1cccc2c(NCc3ccc4c(c3)OCO4)nccc12` the IC50 [1] was > 10 µM and the IC50 [2] was > 10 µM.
`CN(Cc1ccccc1)c1ncnc2c(C(N)=O)cccc12` gave an IC50 [1] of 0.973 µM.
In the case of `CNCCC(Nc1ncnc2c(C(N)=O)cccc12)c1ccccc1` (stereo unspecified), the IC50 [1] is reported as 0.16 µM.
Work on `NC(=O)c1cccc2c(N[C@H](CN3CCC3)c3ccc(C(F)(F)F)cc3)ncnc12` yielded an IC50 [1] of 0.001 µM and an IC50 (cells) of 0.028 µM.
Work on `NC(=O)c1cccc2c(N[C@H](CN3CCC3)c3ccc(Cl)c(C(F)(F)F)c3)ncnc12` [RUPITASERTIB] yielded a bioavailability (in vivo [15]) of 15%, a CL [4] of 31 mL/min and an IC50 [1] of 0.0011 µM. The Vd (in vivo [16]) was 14.3 L/kg, the IC50 [3] was 0.17 µM and the clearance (in vivo [17]) was 0.9 L/h/kg. For the same compound, the Vd (in vivo [18]) was 17.6 L/kg, the fraction unbound (in vitro [5]) was 0.03 and the IC50 (cells) was 0.011 µM. It also gave a bioavailability (in vivo [19]) of 44%, a Vd (in vivo [20]) of 7.43 L/kg and an efflux ratio (in vitro [21]) of 1.5. The half-life (in vivo [22]) was 3.9 h, the CL [6] was 30 mL/min and the bioavailability (in vivo [23]) was 36%. The fraction unbound (in vitro [7]) was 0.05, the logP (physchem) was 2.4 and the CL [8] was 37 mL/min. For the same compound, the clearance (in vivo [9]) was 1.5 L/h/kg, the fraction unbound (in vitro [10]) was 0.05 and the clearance (in vivo [24]) was 3.1 L/h/kg. It also gave a bioavailability (in vivo [11]) of 43%, a Vd (in vivo [25]) of 9.88 L/kg and a half-life (in vivo [26]) of 10.1 h. For the same compound, the clearance (in vivo [27]) was 1.2 L/h/kg, the Papp A→B (in vitro [13]) was 121 nm/s and the IC50 [2] was 0.004 µM. For the same compound, the half-life (in vivo [28]) was 4.1 h and the half-life (in vivo [14]) was 4.3 h.
In the case of `CN(C)C(=O)c1cccc2c(NCc3ccc4c(c3)OCO4)ncnc12`, the IC50 [1] is reported as > 10 µM.
